The results in this text go back to the supplement of paper PMC4954754.

Common to all, as to details: 18 h
Assay [1] has as its system HEK293T-Rex ERSE-FLuc. Description: EC50 for ERSE-FLuc reporter activation. The procedure:
(§1)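 Dose-response of hit compounds in HEK293T-Rex cells stably expressing ERSE-FLuc or XBP1-RLuc reporters, 18 hr treatment, 1536-well; luminescence normalised to 500 nM thapsigargin (100%) and DMSO (0%), fitted to give EC50 (M) and maximal activation; '>' marks EC50 above the top tested dose (~17 µM).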

Assay [2] has as its system HEK293T-Rex XBP1-RLuc. Description: EC50 for XBP1-RLuc reporter activation. The procedure: as §1
The subject of assay [3] is HEK293T-Rex ERSE-FLuc. The assay can be described thus: maximal ERSE-FLuc activation from dose-response fit, relative to thapsigargin (% of thapsigargin); higher = stronger activation. The procedure: as §1
Assay [4] concerns HEK293T-Rex XBP1-RLuc. Description: maximal XBP1-RLuc activation from dose-response fit, relative to thapsigargin (% of thapsigargin); higher = stronger activation. On the procedure:
as §1

Structures are written as SMILES. ± gives the uncertainty stated by the source.

For the compound `C(=C\c1ccccc1)/C=N/Nc1nc2ccccc2[nH]1`, in assay [1], the “EC50 for ERSE-FLuc reporter activation” value was over 18 µM. In addition, in assay [2], the “EC50 for XBP1-RLuc reporter activation” value is over 18 µM. Further, in assay [3], the “maximal ERSE-FLuc activation” value worked out at 25.5 ± 3.7. Also, the “maximal XBP1-RLuc activation” value in assay [4] is 22.2 ± 2.

In the case of `O=C1/C(=C/c2ccc(O)c(O)c2)SC(=S)N1c1ccc(O)cc1`, the “EC50 for ERSE-FLuc reporter activation” value in assay [1] was 12.4 µM. The “EC50 for XBP1-RLuc reporter activation” value in assay [2] is over 16.9 µM. For the same compound, the “maximal ERSE-FLuc activation” value in assay [3] was 77.1 ± 17. Besides, the “maximal XBP1-RLuc activation” value in assay [4] was determined as 35.5 ± 3.5.

Turning to `COc1ccc(/C=C2\SC(=O)NC2=Nc2ccc(C)cc2)c(OC)c1`, the “EC50 for ERSE-FLuc reporter activation” value in assay [1] is over 13 µM. For the same compound, in assay [2], the “EC50 for XBP1-RLuc reporter activation” value was over 13 µM. Also, in assay [3], the “maximal ERSE-FLuc activation” value amounted to 18.2 ± 3.2. Besides, the “maximal XBP1-RLuc activation” value in assay [4] stood at 3.27 ± 1.6.

On to `Cc1ccc2nc(/C(C#N)=C\c3cc(Cl)cc4c3OCOC4)[nH]c2c1`, for which the “EC50 for ERSE-FLuc reporter activation” value in assay [1] is over 16 µM. The “EC50 for XBP1-RLuc reporter activation” value in assay [2] was over 16 µM. Also, the “maximal ERSE-FLuc activation” value in assay [3] amounted to 20.1 ± 3.4. Moreover, the “maximal XBP1-RLuc activation” value in assay [4] came to 3.21 ± 1.4.

With `Cc1nc(-c2ccc(C(=O)Nc3ccc(O)cc3)cc2)cs1`, in assay [1], the “EC50 for ERSE-FLuc reporter activation” value is over 16.9 µM. The “EC50 for XBP1-RLuc reporter activation” value in assay [2] came out at 12.9 µM. In addition, the “maximal ERSE-FLuc activation” value in assay [3] stood at 27.7 ± 1.8. Also, the “maximal XBP1-RLuc activation” value in assay [4] came to 65.5 ± 3.6.

In the case of `O=C(Nc1ccc(Cl)cn1)c1ccc(Cl)cc1Cl`, the “EC50 for ERSE-FLuc reporter activation” value in assay [1] was over 15.2 µM. Besides, the “EC50 for XBP1-RLuc reporter activation” value in assay [2] is over 15.2 µM. The “maximal ERSE-FLuc activation” value in assay [3] came to 22.5 ± 8.3. The “maximal XBP1-RLuc activation” value in assay [4] turned out to be 4.15 ± 0.98.

In the case of `O=C(c1ccccc1)c1c(O)ccc2c(C(=O)c3ccccc3)c(O)ccc12`, in assay [1], the “EC50 for ERSE-FLuc reporter activation” value was over 12.5 µM. Moreover, the “EC50 for XBP1-RLuc reporter activation” value in assay [2] is over 12.5 µM. The “maximal ERSE-FLuc activation” value in assay [3] stood at 32.5 ± 3.7. For the same compound, the “maximal XBP1-RLuc activation” value in assay [4] came to 34.9 ± 1.1.

As to `CCN1C(=O)/C(=C\c2ccc(O)cc2O)SC1=S`, the “EC50 for ERSE-FLuc reporter activation” value in assay [1] was over 16.9 µM. In addition, the “EC50 for XBP1-RLuc reporter activation” value in assay [2] was over 16.9 µM. Further, in assay [3], the “maximal ERSE-FLuc activation” value was 30.9 ± 10. The “maximal XBP1-RLuc activation” value in assay [4] stood at 13.3 ± 1.5.

Consider `Cc1cc2nc(/C(C#N)=C/c3ccco3)[nH]c2cc1C`, for which the “EC50 for ERSE-FLuc reporter activation” value in assay [1] is over 16.9 µM. The “EC50 for XBP1-RLuc reporter activation” value in assay [2] was over 16.9 µM. The “maximal ERSE-FLuc activation” value in assay [3] came out at 28 ± 8.7. The “maximal XBP1-RLuc activation” value in assay [4] was 2.69 ± 0.74.

Turning to `Cc1ccc(/C=C(\C#N)C(=O)Nc2cccc(Cl)c2)o1`, the “EC50 for ERSE-FLuc reporter activation” value in assay [1] was over 16.9 µM. For the same compound, in assay [2], the “EC50 for XBP1-RLuc reporter activation” value was over 16.9 µM. For the same compound, in assay [3], the “maximal ERSE-FLuc activation” value came out at 14.7 ± 3.1. In addition, the “maximal XBP1-RLuc activation” value in assay [4] is 3.54 ± 1.9.

`COc1ccc(-n2nnnc2SCC(N)=O)c(OC)c1`: the “EC50 for ERSE-FLuc reporter activation” value in assay [1] was over 16.9 µM. The “EC50 for XBP1-RLuc reporter activation” value in assay [2] was over 16.9 µM. In addition, the “maximal ERSE-FLuc activation” value in assay [3] was 11.9 ± 3.1. The “maximal XBP1-RLuc activation” value in assay [4] was 1.34 ± 2.6.
